Assay results as given in paper PMC7143538, “New Thiodiketopiperazine and 3,4-Dihydroisocoumarin Derivatives from the Marine-Derived Fungus Aspergillus terreus” (Marine Drugs, 2020).

What follows are compounds tested against T1, protein tyrosine phosphatase 1 B (PTP1B) (Homo sapiens, UniProt P18031) (assay: pNPP phosphatase assay, human recombinant PTP1B, absorbance at […] nm).
T1 construct: gene PTPN1
T1 sequence (P18031 1-435): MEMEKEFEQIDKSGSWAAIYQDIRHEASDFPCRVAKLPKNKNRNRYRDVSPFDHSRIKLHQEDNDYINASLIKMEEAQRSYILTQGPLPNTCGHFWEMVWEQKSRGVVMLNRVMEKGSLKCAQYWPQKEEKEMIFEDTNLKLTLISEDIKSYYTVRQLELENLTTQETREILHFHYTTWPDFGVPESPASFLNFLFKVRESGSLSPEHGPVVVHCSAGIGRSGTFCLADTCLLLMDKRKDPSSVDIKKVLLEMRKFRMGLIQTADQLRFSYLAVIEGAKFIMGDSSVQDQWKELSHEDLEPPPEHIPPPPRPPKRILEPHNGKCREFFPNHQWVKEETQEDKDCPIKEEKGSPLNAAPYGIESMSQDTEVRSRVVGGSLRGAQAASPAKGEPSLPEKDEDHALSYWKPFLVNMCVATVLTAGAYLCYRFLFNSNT
Format: biochemical

SMILES | IC50 [µM]
CS[C@@]1(Cc2ccccc2)NC(=O)[C@@](Cc2ccccc2O)(SC)NC1=O [compound 3, emethacin C] | 12.3
CS[C@@]12CC3=CC=C[C@H](OC(C)=O)[C@H]3N1C(=O)[C@]1(SC)CC3=COC=C[C@H](OC(C)=O)[C@H]3N1C2=O [compound 5, bisdethiobis(methylsulfanyl)acetylapoaranotin] | 25.7
CS[C@@]12CC3=COC=C[C@H](OC(C)=O)[C@H]3N1C[C@]1(SC)CC3=COC=C[C@H](O)[C@H]3N1C2 [compound 7, alternarosin A] | 24.3
